Laboratory results as given in patent publication US20240228481A1, “NOVEL SULFONAMIDE SERIES OF QR2 INHIBITORS TO TACKLE OXIDATIVE STRESS AND COGNITIVE DECLINE” (CARMEL HAIFA UNIVERSITY ECONOMIC CORPORATION LTD., priority 2021, published 2024).

Legend:
QR1 (NQO1) [1] = target: T1, QR1 (NQO1) (Homo sapiens, UniProt P15559); test: Selectivity assay with QR1 in place of QR2, absorbance readout; type: biochemical
T1 construct: purchased Sigma-Aldrich
Description: (§1) The enzymatic activity of QR2 (10 nM) was measured using menadione (both Sigma-Aldrich) as substrate and dihydrobenzylnicotamide (BNAH; Tocris) as co-substrate (Boutin et al., 2005). The reaction was performed in 50 mM Tris HCl, 150 mM NaCl 0.01% Tween-20 pH=8.5 (Sigma-Aldrich) at room temperature. Briefly, 3 μL of menadione alone (200 μM) or a mixture of menadione and QR2 (200 μM of menadione and 10 nM of QR2) were dispensed in 1536-well black Nunc plates (Thermo-Fisher) using a Multidrop™ Combi Reagent Dispenser (Thermo-Fisher) and pre-incubated with compounds for 10 min. BNAH (200 μM) was then added (3 μL) to the reaction using a BioNex Solutions BNX 1536 plate washer and the plates were incubated for another 10 min. […] The initial HTS was done with approximately 200,000 compounds at a single concentration of 5 μM. The chemical libraries used were Selleck Chemicals Bioactives, the Drug-like set from Enamine, HitFinder collection from Maybridge, Spectrum Collection from Microsource, Lopac from Sigma-Aldrich and the diversity sets from ChemDiv and ChemBridge. Initial “hit” compounds were defined as causing >30% reduction of enzyme activity. Compounds suspected to be fluorescent were re-assayed in an absorbance assay at 350 nm using the same reaction but in a higher volume (100 μL), in a transparent plate (Greiner Bio-One). “Hit” compounds resulting from both the fluorescence and absorbance assay were tested in a dose-response, and median inhibition concentration (IC50) values were determined. In parallel, the same dose response was used in a selectivity assay where QR2 enzyme was replaced by QR1 (also known as—NQO1, 10 nM; Sigma-Aldrich).
(§2) In order to establish a varied, flexible and chemically amenable starting point from which to develop such inhibitors, the inventors ran a standardized QR2 assay (see methods) against ˜200,000 compounds, from a varied assortment of chemical libraries. […] Compounds that replicated the initial hit result were then assayed similarly, against NQO1, to evaluate compound specificity (FIG. 1B). From the HTS, a series of compounds containing a sulfonamide central linker, with an amine on one side and a heterocycle on the other, were identified and selected for SAR development (FIG. 1C).

in vitro = settings: human
QR1 (NQO1) [2] = target: T1, QR1 (NQO1); test: Selectivity assay with QR1 in place of QR2, fluorescence readout; type: biochemical
Description: as §1, §2

QR2 [3] = target: T2, QR2 (Homo sapiens, UniProt P16083); test: QR2 enzymatic activity assay (menadione/BNAH), fluorescence readout; type: biochemical; set-up: purchased Sigma-Aldrich
T2 sequence (P16083 1-231): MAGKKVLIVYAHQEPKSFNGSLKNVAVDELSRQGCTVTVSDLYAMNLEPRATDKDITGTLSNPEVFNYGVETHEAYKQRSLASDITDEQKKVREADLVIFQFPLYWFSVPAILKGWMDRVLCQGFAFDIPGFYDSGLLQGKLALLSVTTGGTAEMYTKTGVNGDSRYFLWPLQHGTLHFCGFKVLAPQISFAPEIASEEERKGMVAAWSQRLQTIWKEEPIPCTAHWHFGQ
Description: (§3) The enzymatic activity of QR2 (10 nM) was measured using menadione (both Sigma-Aldrich) as substrate and dihydrobenzylnicotamide (BNAH; Tocris) as co-substrate (Boutin et al., 2005). The reaction was performed in 50 mM Tris HCl, 150 mM NaCl 0.01% Tween-20 pH=8.5 (Sigma-Aldrich) at room temperature. Briefly, 3 μL of menadione alone (200 μM) or a mixture of menadione and QR2 (200 μM of menadione and 10 nM of QR2) were dispensed in 1536-well black Nunc plates (Thermo-Fisher) using a Multidrop™ Combi Reagent Dispenser (Thermo-Fisher) and pre-incubated with compounds for 10 min. BNAH (200 μM) was then added (3 μL) to the reaction using a BioNex Solutions BNX 1536 plate washer and the plates were incubated for another 10 min. […] The initial HTS was done with approximately 200,000 compounds at a single concentration of 5 μM. The chemical libraries used were Selleck Chemicals Bioactives, the Drug-like set from Enamine, HitFinder collection from Maybridge, Spectrum Collection from Microsource, Lopac from Sigma-Aldrich and the diversity sets from ChemDiv and ChemBridge. Initial “hit” compounds were defined as causing >30% reduction of enzyme activity. […] “Hit” compounds resulting from both the fluorescence and absorbance assay were tested in a dose-response, and median inhibition concentration (IC50) values were determined. In parallel, the same dose response was used in a selectivity assay where QR2 enzyme was replaced by QR1 (also known as—NQO1, 10 nM; Sigma-Aldrich).
(§4) In order to establish a varied, flexible and chemically amenable starting point from which to develop such inhibitors, the inventors ran a standardized QR2 assay (see methods) against ˜200,000 compounds, from a varied assortment of chemical libraries.

QR2 [4] = target: T2, QR2; test: QR2 enzymatic activity assay (menadione/BNAH), absorbance readout at 350 nm; type: biochemical; set-up: purchased Sigma-Aldrich
Description: as §3, §4

T1 sequence (P15559 whole entry): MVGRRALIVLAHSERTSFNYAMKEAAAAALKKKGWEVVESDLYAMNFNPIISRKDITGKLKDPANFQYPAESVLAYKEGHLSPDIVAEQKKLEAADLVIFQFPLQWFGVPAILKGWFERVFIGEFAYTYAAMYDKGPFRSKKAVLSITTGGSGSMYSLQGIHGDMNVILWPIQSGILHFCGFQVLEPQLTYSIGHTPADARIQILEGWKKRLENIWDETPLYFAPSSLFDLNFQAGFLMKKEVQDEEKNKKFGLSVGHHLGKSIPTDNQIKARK

SMILES | IC50 (QR1 (NQO1) [1]) | IC50 at 72 h (in vitro) | IC50 (QR1 (NQO1) [2]) | IC50 (QR2 [3]) | IC50 (QR2 [4])
Cc1ccn2cc(-c3cccc(S(=O)(=O)N4CCCC4)c3)nc2c1 [PCM-0124535] | > 9.99 µM | 88.9 µM | > 9.99 µM | 0.59 µM | 0.16 µM
Cc1cccn2cc(-c3cccc(S(=O)(=O)N4CCCCCC4)c3)nc12 [PCM-0124812] | 7.24 µM | 45.4 µM | 5.83 µM | 0.004 µM | 0.01 µM
Cc1cc(-c2ccc(C)c(S(=O)(=O)NCCCN3CCCC3=O)c2)on1 [PCM-0184891] | > 9.99 µM | 219 µM | > 9.9 µM | 3.26 µM | 2.37 µM
Cc1cc(-c2ccc(C)c(S(=O)(=O)NCc3cccnc3)c2)on1 [PCM-0184959] | > 9.99 µM | 249 µM | > 9.9 µM | 2.72 µM | 2.16 µM
Cc1cc(-c2ccc(C)c(S(=O)(=O)N3CCCCCC3)c2)on1 [PCM-0212385] | > 9.99 µM | 23.8 µM | > 9.99 µM | 1.92 µM | 1.24 µM
Cc1cc(-c2ccc(C)c(S(=O)(=O)N3CCCC3)c2)on1 [PCM-0212386] | > 9.99 µM | 65.1 µM | > 9.99 µM | 0.42 µM | 0.75 µM
Cc1cc(-c2ccc(C)c(S(=O)(=O)N3CCC(C)CC3)c2)on1 [PCM-0212387] | > 9.99 µM | 50 µM | > 9.99 µM | 2.89 µM | 1.83 µM
Cc1cc(-c2ccc(C)c(S(=O)(=O)N3CCN(C(=O)c4ccco4)CC3)c2)on1 [PCM-0212388] | > 9.99 µM | 124 µM | > 9.99 µM | 1.19 µM | 1.25 µM
Cc1cc(-c2ccc(C)c(S(=O)(=O)N(C)C)c2)on1 [PCM-0212389] | > 9.99 µM | 215 µM | > 9.99 µM | 2.31 µM | 1.71 µM
Cc1cccn2cc(-c3cccc(S(=O)(=O)N4CCN(C(=O)c5ccco5)CC4)c3)nc12 [PCM-0213792] | 4.22 µM | 64.1 µM | 3.33 µM | 0.01 µM | 0.01 µM
Cc1cc(-c2ccc(C)c(S(=O)(=O)N3CCCCCC3)c2)[nH]n1 [PCM-0213795] | > 9.99 µM | – | > 9.99 µM | 0.64 µM | 0.28 µM
Cc1nc(-c2ccc(C)c(S(=O)(=O)N3CCCCCC3)c2)cs1 [PCM-0213796] | > 9.99 µM | – | > 9.99 µM | > 9.99 µM | 2.44 µM
Cc1ccc(-c2nnc(-c3ccccc3)o2)cc1S(=O)(=O)N1CCCCCC1 [PCM-0213797] | > 9.99 µM | – | > 9.99 µM | 3.38 µM | 1.06 µM
Cc1ccn2cc(-c3cccc(S(=O)(=O)N4CCCCCC4)c3)nc2c1 [PCM-0213798] | > 9.99 µM | – | > 9.99 µM | 1.27 µM | 0.41 µM
Cc1cc(-c2ccc(C)c(S(=O)(=O)N3CCC(C)CC3)c2)n[nH]1 [PCM-0213799] | > 9.99 µM | – | > 9.99 µM | 0.9 µM | 0.27 µM
Cc1cc(-c2ccc(C)c(S(=O)(=O)N(C)C)c2)n[nH]1 [PCM-0213802] | > 9.99 µM | – | > 9.99 µM | 0.39 µM | 0.16 µM
Cc1nc(-c2ccc(C)c(S(=O)(=O)N(C)C)c2)cs1 [PCM-0213803] | > 9.99 µM | – | > 9.99 µM | 2.8 µM | 0.1 µM
Cc1ccc(-c2nnc(-c3ccccc3)o2)cc1S(=O)(=O)N1CCCC1 [PCM-0213805] | > 9.99 µM | – | > 9.99 µM | 1.48 µM | 0.25 µM
Cc1cc(-c2ccc(C)c(S(=O)(=O)N3CCCC3)c2)n[nH]1 [PCM-0213806] | > 9.99 µM | – | > 9.99 µM | 0.17 µM | 0.05 µM
Cc1nc(-c2ccc(C)c(S(=O)(=O)N3CCCC3)c2)cs1 [PCM-0213807] | > 9.99 µM | – | > 9.99 µM | 1.55 µM | 0.37 µM
Cc1ccn2cc(-c3ccc(C)c(S(=O)(=O)N4CCCC4)c3)nc2c1 [PCM-0213809] | > 9.99 µM | – | > 9.99 µM | 0.51 µM | 0.18 µM
Cc1cc(-c2ccc(C)c(S(=O)(=O)NCc3cccnc3)c2)n[nH]1 [PCM-0213811] | > 9.99 µM | – | > 9.99 µM | 3.16 µM | 0.98 µM
Cc1ccn2cc(-c3cccc(S(=O)(=O)NCc4cccnc4)c3)nc2c1 [PCM-0213812] | 8.6 µM | – | > 9.99 µM | 9.62 µM | 0.75 µM
Cc1ccc(-c2nnc(-c3ccccc3)o2)cc1S(=O)(=O)NCc1cccnc1 [PCM-0213813] | > 9.99 µM | – | > 9.99 µM | 6.49 µM | 1.17 µM
Cc1cc(-c2ccc(C)c(S(=O)(=O)NCCCN3CCCC3=O)c2)n[nH]1 [PCM-0213815] | > 9.99 µM | – | > 9.99 µM | 0.93 µM | 0.28 µM
Cc1ccn2cc(-c3cccc(S(=O)(=O)NCCCN4CCCC4=O)c3)nc2c1 [PCM-0213817] | 3.44 µM | – | 5.28 µM | 0.7 µM | 0.32 µM
Cc1ccn2cc(-c3ccc(C)c(S(=O)(=O)N4CCC(C)CC4)c3)nc2c1 [PCM-0214339] | – | 59.4 µM | – | 3.96 µM | 4.49 µM
